Data reported in ChEMBL document CHEMBL2331534, “Design, synthesis and biological evaluation of novel hybrid compounds of imidazole scaffold-based 2-benzylbenzofuran as potent anticancer agents” (Eur J Med Chem, 2013).

Assays:
[1] = test system: SMMC-7721; assay: Cytotoxicity against human SMMC7721 cells assessed as growth inhibition after 48 hrs by MTT assay; format: functional, cell-based; conditions: SMMC-7721, 48 h
[2] = test system: A549; assay: Cytotoxicity against human A549 cells assessed as growth inhibition after 48 hrs by MTT assay; format: functional, cell-based; conditions: A549, 48 h
[3] = test system: MCF7; assay: Cytotoxicity against human MCF7 cells assessed as growth inhibition after 48 hrs by MTT assay; format: functional, cell-based; conditions: MCF7, 48 h
[4] = test system: SW480; assay: Cytotoxicity against human SW480 cells assessed as growth inhibition after 48 hrs by MTT assay; format: functional, cell-based; conditions: SW480, 48 h
[5] = test system: HL-60; assay: Cytotoxicity against human HL60 cells assessed as growth inhibition after 48 hrs by MTT assay; format: functional, cell-based; conditions: HL-60, 48 h
[6] = test system: SMMC-7721; assay: Ratio of compound IC50 to DDP IC50 for growth inhibition of human SMMC7721 cells; format: functional
[7] = test system: MCF7; assay: Ratio of compound IC50 to DDP IC50 for growth inhibition of human MCF7 cells; format: functional

SMILES	IC50 [1]	IC50 [2]	IC50 [3]	IC50 [4]	IC50 [5]	Ratio IC50 [6]	Ratio IC50 [7]
c1ccc(C[n+]2cn(C(c3ccccc3)c3cc4ccccc4o3)c3ccccc32)cc1 (configuration not stated)	3.63 µM	6.92 µM	9.16 µM	6.31 µM	1050 nM		
Cc1n(C(c2ccccc2)c2cc3ccccc3o2)cc[n+]1CC(=O)c1ccc(F)cc1 (configuration not stated)	14.5 µM	21.7 µM	10.7 µM	12.7 µM	4700 nM		
CCCC[n+]1ccn(C(c2ccccc2)c2cc3ccccc3o2)c1CC (configuration not stated)	> 40 µM	> 40 µM	> 40 µM	> 40 µM	> 40000 nM		
O=C(C[n+]1ccn(C(c2ccccc2)c2cc3ccccc3o2)c1)c1ccc2ccccc2c1 (configuration not stated)	3.47 µM	7.77 µM	3.12 µM	14.2 µM	1930 nM		
C=CC[n+]1ccn(C(c2ccccc2)c2cc3ccccc3o2)c1 (configuration not stated)	> 40 µM	> 40 µM	> 40 µM	> 40 µM	> 40000 nM		
CCc1nccn1C(c1ccccc1)c1cc2ccccc2o1 (configuration not stated)	> 40 µM	> 40 µM	> 40 µM	> 40 µM	> 40000 nM		
O=C(C[n+]1cn(C(c2ccccc2)c2cc3ccccc3o2)c2ccccc21)c1ccc2ccccc2c1.[Br-] (configuration not stated)	2.35 µM	3.43 µM	3.13 µM	3.18 µM	1120 nM	6.3	
CCc1n(C(c2ccccc2)c2cc3ccccc3o2)cc[n+]1CC(=O)c1ccc(O)cc1 (configuration not stated)	> 40 µM	> 40 µM	> 40 µM	> 40 µM	> 40000 nM		
O=C(C[n+]1cn(C(c2ccccc2)c2cc3ccccc3o2)c2ccccc21)c1ccccc1 (configuration not stated)	5.34 µM	14.4 µM	9.59 µM	15.5 µM	2690 nM		
O=C(C[n+]1ccn(C(c2ccccc2)c2cc3ccccc3o2)c1)c1ccc(Br)cc1 (configuration not stated)	5.5 µM	15.5 µM	12 µM	15.5 µM	2640 nM		
C=CC[n+]1ccn(C(c2ccccc2)c2cc3ccccc3o2)c1C (configuration not stated)	> 40 µM	> 40 µM	> 40 µM	> 40 µM	> 40000 nM		
O=C(C[n+]1ccn(C(c2ccccc2)c2cc3ccccc3o2)c1)c1ccc(F)cc1 (configuration not stated)	> 40 µM	> 40 µM	> 40 µM	> 40 µM	> 40000 nM		
CCc1n(C(c2ccccc2)c2cc3ccccc3o2)cc[n+]1CC(=O)c1ccc(Br)cc1 (configuration not stated)	6.14 µM	14.1 µM	9.5 µM	15.5 µM	2940 nM		
O=[N+]([O-])c1ccc(C[n+]2ccn(C(c3ccccc3)c3cc4ccccc4o3)c2)cc1 (configuration not stated)	> 40 µM	> 40 µM	> 40 µM	> 40 µM	> 40000 nM		
Cc1n(C(c2ccccc2)c2cc3ccccc3o2)cc[n+]1CC(=O)c1ccc(Br)cc1 (configuration not stated)	11.1 µM	26.1 µM	15.2 µM	14.5 µM	3300 nM		
CCc1n(C(c2ccccc2)c2cc3ccccc3o2)cc[n+]1CC(=O)c1ccc(F)cc1 (configuration not stated)	10.9 µM	7.36 µM	13.8 µM	> 40 µM	2380 nM		
Cc1n(C(c2ccccc2)c2cc3ccccc3o2)cc[n+]1Cc1ccccc1 (configuration not stated)	> 40 µM	> 40 µM	> 40 µM	> 40 µM	> 40000 nM		
C=CC[n+]1cn(C(c2ccccc2)c2cc3ccccc3o2)c2ccccc21 (configuration not stated)	> 40 µM	> 40 µM	> 40 µM	> 40 µM	> 40000 nM		
CCCC[n+]1ccn(C(c2ccccc2)c2cc3ccccc3o2)c1 (configuration not stated)	> 40 µM	> 40 µM	> 40 µM	> 40 µM	> 40000 nM		
CCCC[n+]1ccn(C(c2ccccc2)c2cc3ccccc3o2)c1C (configuration not stated)	> 40 µM	> 40 µM	> 40 µM	> 40 µM	> 40000 nM		
COc1ccc(C(=O)C[n+]2ccn(C(c3ccccc3)c3cc4ccccc4o3)c2C)cc1 (configuration not stated)	5.29 µM	8 µM	9.84 µM	14.4 µM	1650 nM		
CCCC[n+]1cn(C(c2ccccc2)c2cc3ccccc3o2)c2ccccc21 (configuration not stated)	7.03 µM	12.3 µM	15.4 µM	29.3 µM	2870 nM		

SMILES	IC50 [1]	IC50 [2]	IC50 [3]	IC50 [4]	IC50 [5]	Ratio IC50 [6]	Ratio IC50 [7]
O=C(C[n+]1cn(C(c2ccccc2)c2cc3ccccc3o2)c2ccccc21)c1ccc(O)cc1 (configuration not stated)	> 40 µM	> 40 µM	> 40 µM	> 40 µM	> 40000 nM		
CS(=O)(=O)OC(c1ccccc1)c1cc2ccccc2o1 (configuration not stated)	> 40 µM	> 40 µM	> 40 µM	> 40 µM	> 40000 nM		
c1ccc(C[n+]2ccn(C(c3ccccc3)c3cc4ccccc4o3)c2)cc1 (configuration not stated)	> 40 µM	> 40 µM	> 40 µM	> 40 µM	> 40000 nM		
Cc1n(C(c2ccccc2)c2cc3ccccc3o2)cc[n+]1CC(=O)c1ccc2ccccc2c1 (configuration not stated)	4.29 µM	8.57 µM	2.24 µM	4.48 µM	1850 nM		
O=[N+]([O-])c1ccc(C[n+]2cn(C(c3ccccc3)c3cc4ccccc4o3)c3ccccc32)cc1 (configuration not stated)	11.5 µM	> 40 µM	16.4 µM	14 µM	11000 nM		
COc1ccc(C(=O)C[n+]2cn(C(c3ccccc3)c3cc4ccccc4o3)c3ccccc32)cc1.[Br-] (configuration not stated)	3.09 µM	3.57 µM	2.29 µM	3.55 µM	1020 nM		4.6
C=CC[n+]1ccn(C(c2ccccc2)c2cc3ccccc3o2)c1CC (configuration not stated)	> 40 µM	> 40 µM	> 40 µM	> 40 µM	> 40000 nM		
CCc1n(C(c2ccccc2)c2cc3ccccc3o2)cc[n+]1Cc1ccccc1 (configuration not stated)	7.14 µM	6.52 µM	5.24 µM	3.75 µM	2060 nM		
CCc1n(C(c2ccccc2)c2cc3ccccc3o2)cc[n+]1CC(=O)c1ccccc1 (configuration not stated)	10.6 µM	13.7 µM	14 µM	19.1 µM	2640 nM		
COc1ccc(C(=O)C[n+]2ccn(C(c3ccccc3)c3cc4ccccc4o3)c2)cc1 (configuration not stated)	8.47 µM	14.6 µM	16.1 µM	15.4 µM	2990 nM		
O=C(C[n+]1cn(C(c2ccccc2)c2cc3ccccc3o2)c2ccccc21)c1ccc(F)cc1 (configuration not stated)	3.98 µM	9.15 µM	12 µM	13.6 µM	2100 nM		
Cc1n(C(c2ccccc2)c2cc3ccccc3o2)cc[n+]1CC(=O)c1ccccc1 (configuration not stated)	14.8 µM	18.8 µM	10.2 µM	> 40 µM	3170 nM		
CCc1n(C(c2ccccc2)c2cc3ccccc3o2)cc[n+]1CC(=O)c1ccc2ccccc2c1 (configuration not stated)	4.48 µM	3.23 µM	4.2 µM	16.4 µM	1860 nM		
CCc1n(C(c2ccccc2)c2cc3ccccc3o2)cc[n+]1CC(=O)c1ccc(OC)cc1 (configuration not stated)	7.07 µM	5.43 µM	9.5 µM	17.1 µM	2170 nM		
c1ccc(C(c2cc3ccccc3o2)n2ccnc2)cc1 (configuration not stated)	> 40 µM	> 40 µM	> 40 µM	> 40 µM	> 40000 nM		
Cc1nccn1C(c1ccccc1)c1cc2ccccc2o1 (configuration not stated)	> 40 µM	> 40 µM	> 40 µM	> 40 µM	> 40000 nM		
Cc1n(C(c2ccccc2)c2cc3ccccc3o2)cc[n+]1CC(=O)c1ccc(O)cc1 (configuration not stated)	> 40 µM	> 40 µM	> 40 µM	> 40 µM	> 40000 nM		
c1ccc(C(c2cc3ccccc3o2)n2cnc3ccccc32)cc1 (configuration not stated)	> 40 µM	> 40 µM	> 40 µM	> 40 µM	> 40000 nM		
O=C(C[n+]1ccn(C(c2ccccc2)c2cc3ccccc3o2)c1)c1ccccc1 (configuration not stated)	> 40 µM	> 40 µM	> 40 µM	> 40 µM	> 40000 nM		
O=C(C[n+]1cn(C(c2ccccc2)c2cc3ccccc3o2)c2ccccc21)c1ccc(Br)cc1 (configuration not stated)	3.99 µM	4.76 µM	3.35 µM	3.75 µM	2680 nM		
O=C(C[n+]1ccn(C(c2ccccc2)c2cc3ccccc3o2)c1)c1ccc(O)cc1 (configuration not stated)	> 40 µM	> 40 µM	> 40 µM	> 40 µM	> 40000 nM		
